Holding throughout (type): cell-based
In experiment [1] the test system is MV-4-11 cells. As to the kind of experiment: MV-4-11 cell proliferation inhibition, CCK-8. The note with it: Homo sapiens, MV4-11, 96 h, MV-4-11, 4 days, Table 8, positive control Ibrutinib. A digest of the protocol: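 MV-4-11 cells (7,500/well) in IMDM with 10% FBS were exposed to graded compound concentrations for 4 days at 37 °C, 5% CO2. Viability was measured with CCK-8, and IC50 values were derived from inhibition rates.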

In experiment [2] the test system is Z138 cells. The experiment in a line: Z138 cell proliferation inhibition, CCK-8. Conditions: Homo sapiens, Z-138, 96 h, Z138, 4 days. On the procedure: The complete medium required for Z138 cells is IMDM (ATCC, Product number: 30-2005) basal medium containing 10% horse serum. Z138 cells were seeded in a 96-well plate at a density of 10,000 cells/well, and different concentrations of the compound of the present invention and a positive control sample Ibrutinib (source: Bide Pharmaceuticals) were prepared to treat the cells. The cells were incubated in a 37° C., 5% CO2 cell incubator for 4 days. Cell viability was detected using the CCK-8 kit (Beyotime, Product number: C0040) according to the manufacturer's instructions. According to the inhibition rate, the GraphPad Prism software was used to calculate the IC50 value of each compound for 4 days, and the results are shown in Table 14.

Experiment [3] concerns 22RV1 cells. The experiment in a line: 22RV1 cell proliferation inhibition, CCK-8. Conditions: 22RV1, 7 days. On the procedure: The complete medium required for 22RV1 cells is RPM11640 (ATCC, Product number: 30-2001) basal medium containing 10% fetal bovine serum. 22RV1 cells were seeded in a 96-well plate at a density of 4,000 cells/well, and the next day, different concentrations of the compound of the present invention and the positive control sample JQ1 (source: Bide Pharmaceuticals) were prepared to treat the cells, and the cells were cultured at 37° C. and 5% CO2 for 7 days in the incubator. Cell viability was detected using the CCK-8 kit (Beyotime, Product number: C0040) according to the manufacturer's instructions. According to the inhibition rate, the GraphPad Prism software was used to calculate the IC50 value of each compound for 7 days, and the results are shown in Table 4.

Experiment [4] relates to T-47D cells. The experiment in a line: T-47D cell proliferation inhibition, CCK-8. Conditions: Homo sapiens, T47D, 144 h, 6 days. Here is the method:
The complete medium required for T-47D cells is 1640 (ATCC, Product number: A10491-01) basal medium containing 10% fetal bovine serum. T-47D cells were seeded in a 96-well plate at a density of 3,000/well, and different concentrations of the compound of the present invention and the positive control sample ARV-471 (source: Innochem) were prepared to treat the cells. The cells were incubated at 37° C., 5% for 6 days in a CO2 cell incubator. Cell viability was detected using the CCK-8 kit (Beyotime, Product number: C0040) according to the manufacturer's instructions. According to the inhibition rate, the GraphPadPrism software was used to calculate the IC50 value of each compound for 6 days, and the results are shown in Table 17.

Experiment [5] concerns MCF-7 cells. The experiment in a line: MCF-7 cell proliferation inhibition, CCK-8. The note with it: Homo sapiens, MCF7, 216 h, MCF-7, 9 days. On the procedure: The complete medium required for MCF-7 cells is DMEM (gibco, Product number: 11995-065) basal medium containing 10% fetal bovine serum. MCF-7 cells were seeded in a 96-well plate at a density of 800/well, and different concentrations of the compound of the present invention and the positive control sample ARV-471 (source: Enochem) were prepared to treat the cells. The cells were incubated at 37° C., 5% 9 days in a CO2 cell incubator. Cell viability was detected using the CCK-8 kit (Beyotime, Product number: C0040) according to the manufacturer's instructions. According to the inhibition rate, GraphPadPrism software was used to calculate the IC50 value of each compound for 9 days, and the results are shown in Table 18.

13 molecules from patent US20250129088A1, “CEREBLON E3 UBIQUITIN LIGASE INHIBITOR” (Gan & Lee Pharmaceuticals Co., Ltd., priority 2022, published 2025) can be followed below.

As for `C=CC(=O)N1CCC[C@@H](n2nc(-c3ccc(Oc4ccccc4)cc3)c3c(N)ncnc32)C1` [Ibrutinib, reference compound], the values for the IC50 in experiment [1] and in experiment [2] were 77 nM and 21100 nM, respectively.
Regarding `Cc1sc2c(c1C)C(c1ccc(Cl)cc1)=N[C@@H](CC(=O)OC(C)(C)C)c1nnc(C)n1-2` [JQ1, reference compound], half-maximal inhibition in experiment [3] (IC50) was put at 44 nM.
With `Nc1ncnc2c1c(-c1ccc(Oc3ccccc3)cc1)nn2[C@@H]1CCCN(CCOCCC(=O)N2CCC3(CC2)COc2cc4c(cc2C3)C(=O)N(C2CCC(=O)NC2=O)C4=O)C1` (stereo partly drawn) [PROTAC 34, 1-(3-(2-((R)-3-(4-amino-3-(4-phenoxyphenyl)-1H-pyrazolo[3,4-d]pyrimidin-1-yl)piperidin-1-yl)ethoxy)propionyl)-7′-(2,6-dioxopiperidin-3-yl)-2′H-spiro[piperidine-4,3′-pyrano[2,3-f]isoindole]-6′,8′(4′H,7′H)-dione], the IC50 – broadly, the concentration that inhibits the measured activity by half – in experiment [2] is 13900 nM.
Regarding `Cc1sc2c(c1C)C(c1ccc(Cl)cc1)=N[C@@H](CC(=O)N1CC3(CCc4cc5c(cc4O3)CN(C3CCC(=O)NC3=O)C5=O)C1)c1nnc(C)n1-2` (stereo partly drawn) [PROTAC 46, 3-(1-(2-((S)-4-(4-chlorophenyl)-2,3,9-trimethyl-6H-thieno[3,2-f][1,2,4]triazolo[4,3-a][1,4]diazepine-6-yl)acetyl)-6′-oxo-3′,4′,6′,8′-tetrahydro-7′H-spiro[azetidine-3,2′-pyrano[2,3-f]isoindole]-7′-yl)piperidine-2,6-dione], the IC50 in experiment [3] (Homo sapiens, 168 h) is 226 nM; in experiment [1] it was 5.4 nM.
As to `Cc1sc2c(c1C)C(c1ccc(Cl)cc1)=N[C@@H](CC(=O)N1CCC3(CCc4cc5c(cc4O3)CN(C3CCC(=O)NC3=O)C5=O)CC1)c1nnc(C)n1-2` (stereo partly drawn) [PROTAC 47, 3-(1-(2-((S)-4-(4-chlorophenyl)-2,3,9-trimethyl-6H-thieno[3,2-f][1,2,4]triazolo[4,3-a][1,4]diazepine-6-yl)acetyl)-6′-oxo-3′,4′,6′,8′-tetrahydro-7′H-spiro[piperidine-4,2′-pyrano[2,3-f]isoindole]-7′-yl)piperidine-2,6-dione], the IC50 came out at 103 nM in experiment [3] (Homo sapiens, 168 h) and 17 nM in experiment [1].
The corresponding values for `Cc1sc2c(c1C)C(c1ccc(Cl)cc1)=N[C@@H](CC(=O)N1CCC3(CCc4cc5c(cc4O3)C(=O)N(C3CCC(=O)NC3=O)C5)CC1)c1nnc(C)n1-2` (stereo partly drawn) [PROTAC 48, 3-(1-(2-((S)-4-(4-chlorophenyl)-2,3,9-trimethyl-6H-thieno[3,2-f][1,2,4]triazolo[4,3-a][1,4]diazepine-6-yl)acetyl)-8′-oxo-3′,4′,6′,8′-tetrahydro-7′H-spiro[piperidine-4,2′-pyrano[2,3-f]isoindole]-7′-yl)piperidine-2,6-dione] are 24 nM and 0.96 nM.
The corresponding values for `Cc1sc2c(c1C)C(c1ccc(Cl)cc1)=N[C@@H](CC(=O)N1CCC3(CC1)COc1cc4c(cc1O3)CN(C1CCC(=O)NC1=O)C4=O)c1nnc(C)n1-2` (stereo partly drawn) [PROTAC 49, 3-(1-(2-((S)-4-(4-chlorophenyl)-2,3,9-trimethyl-6H-thieno[3,2-f][1,2,4]triazolo[4,3-a][1,4]diazepine-6-yl)acetyl)-6′-oxo-6′,8′-dihydro-3′H,7′H-spiro[piperidin-4,2′-[1,4]dioxino[2,3-f]isoindole]-7′-yl)piperidine-2,6-dione] are 141 nM and 8.2 nM.
For `Cc1sc2c(c1C)C(c1ccc(Cl)cc1)=N[C@@H](CC(=O)N1CCC3(CCc4cc5c(cc4O3)C(=O)N(C3CCC(=O)NC3=O)C5=O)CC1)c1nnc(C)n1-2` (stereo partly drawn) [PROTAC 50, 1-(2-((S)-4-(4-chlorophenyl)-2,3,9-trimethyl-6H-thieno[3,2-f][1,2,4]triazole[4,3-a][1,4]diazepine-6-yl)acetyl)-7′-(2,6-dioxopiperidin-3-yl)-3′,4′-dihydro-6′H-spiro[piperidine-4,2′-pyrano[2,3-f]isoindole]-6′,8′(7′H)-dione], in that order: 15 nM and 6.9 nM.
As for `Cc1sc2c(c1C)C(c1ccc(Cl)cc1)=N[C@@H](CC(=O)N1CC3(CCc4cc5c(cc4O3)C(=O)N(C3CCC(=O)NC3=O)C5=O)C1)c1nnc(C)n1-2` (stereo partly drawn) [PROTAC 51, 1-(2-((S)-4-(4-chlorophenyl)-2,3,9-trimethyl-6H-thieno[3,2-f][1,2,4]triazole[4,3-a][1,4]diazepine-6-yl)acetyl)-7′-(2,6-dioxopiperidin-3-yl)-3′,4′-dihydro-6′H-spiro[azetidine-3,2′-pyrano[2,3-f]isoindole]-6′,8′(7′H)-dione], the half-inhibitory concentration (IC50) was 123 nM in experiment [3] (Homo sapiens, 168 h) and 20 nM in experiment [1].
Regarding `O=C1CCC(N2Cc3cc4c(cc3C2=O)CCC2(CN(C3CC5(CCN(c6ccc([C@@H]7c8ccc(O)cc8CC[C@@H]7c7ccccc7)cc6)CC5)C3)C2)O4)C(=O)N1` (stereo partly drawn) [PROTAC 56, 3-(1-(7-(4-((1R,2S)-6-hydroxy-2-phenyl-1,2,3,4-tetrahydronaphthalen-1-yl)phenyl)-7-azaspiro[3.5]non-2-yl)-6′-oxo-3′,4′,6′,8′-tetrahydro-7′H-spiro[azetidine-3,2′-pyrano[2,3-f]isoindol]-7′-yl)piperidine-2,6-dione], the IC50 in experiment [4] was determined as 1.6 nM; in experiment [5] it was 70 nM.
For `O=C1CCC(N2Cc3cc4c(cc3C2=O)CCC2(CCN(C3CC5(CCN(c6ccc([C@@H]7c8ccc(O)cc8CC[C@@H]7c7ccccc7)cc6)CC5)C3)CC2)O4)C(=O)N1` (stereo partly drawn) [PROTAC 57, 3-(1-(7-(4-((1R,2S)-6-hydroxy-2-phenyl-1,2,3,4-tetrahydronaphthalen-1-yl)phenyl)-7-nitrogenheterospiro[3.5]non-2-yl)-6′-oxo-3′,4′,6′,8′-tetrahydro-7′H-spiro[piperidin-4,2′-pyrano [2,3-f]isoindole]-7′-yl)piperidine-2,6-dione], in that order: 2 nM and 10 nM.
For `O=C1CCC(N2Cc3cc4c(cc3C2=O)OCC2(CCN(C3CC5(CCN(c6ccc([C@@H]7c8ccc(O)cc8CC[C@@H]7c7ccccc7)cc6)CC5)C3)CC2)O4)C(=O)N1` (stereo partly drawn) [PROTAC 58, 3-(1-(7-(4-((1R,2S)-6-hydroxy-2-phenyl-1,2,3,4-tetrahydronaphthalen-1-yl)phenyl)-7-azaspiro [3.5]non-2-yl)-6′-oxo-6′,8′-dihydro-3′H,7′H-spiro[piperidine-4,2′-[1,4]dioxino[2,3-f]isoindol]-7′-yl)piperidine-2,6-dione], in that order: 1 nM and 20 nM.
Regarding `O=C1CCC(N2Cc3ccc4c(c3C2=O)OCC2(CCN(C3CCC5(CC3)CCN(c3ccc([C@@H]6c7ccc(O)cc7CC[C@@H]6c6ccccc6)cc3)CC5)CC2)C4)C(=O)N1` (stereo partly drawn) [PROTAC 59, 3-(1-(3-(4-((1R,2S)-6-hydroxy-2-phenyl-1,2,3,4-tetrahydronaphthalen-1-yl)phenyl)-3-azaspiro[5.5]undec-9-yl)-9′-oxo-7′,9′-dihydro-2′H-spiro[piperidin-4,3′-pyrano[2,3-f]isoindole]-8′(4′H)-yl)piperidine-2,6-dione], the IC50 was 5.2 nM in experiment [4] and 130 nM in experiment [5].
